{"source": "ChEMBL document CHEMBL3603836", "about": "“Hybrid pyrimidine alkynyls inhibit the clinically resistance related Bcr-Abl(T315I) mutant” (Bioorg Med Chem Lett, 2015)", "key": {"Mus musculus [1]": {"tested_on": "Mus musculus", "assay": "Toxicity in human K562 cells expressing wild type Bcr-Abl xenografted mouse assessed as change in body weight at 3.3 to 10 mg/kg, po qd for 16 days relative to control", "type": "organism-based", "conditions": "in vivo, 384 h"}, "K562 [2]": {"tested_on": "K562", "assay": "Induction of apoptosis in human K562 cells expressing wild type Bcr-Abl assessed as late apoptotic cells at 0.8 nM after 24 hrs using annexin-V/7-AAD staining by FACS analysis (reference value: 2.1%)", "type": "functional"}, "[3]": {"assay": "Cell cycle arrest in mouse BA/F3 cells expressing Bcr-Abl T315I mutant assessed as accumulation at G0/G1 phase at 20 nM after 24 hrs using propidium iodide staining by flow cytometry (reference value: 51.92%)", "type": "functional, cell-based", "conditions": "BaF3"}, "K562 [4]": {"tested_on": "K562", "assay": "Induction of apoptosis in human K562 cells expressing wild type Bcr-Abl assessed as early apoptotic cells at 0.8 nM after 24 hrs using annexin-V/7-AAD staining by FACS analysis (reference value: 7.3%)", "type": "functional"}, "BaF3 [5]": {"tested_on": "BaF3", "assay": "Induction of apoptosis in mouse BA/F3 cells expressing Bcr-Abl T315I mutant assessed as late apoptotic cells after 24 hrs using annexin-V/7-AAD staining by FACS analysis", "type": "functional, cell-based"}, "K562 [6]": {"tested_on": "K562", "assay": "Cell cycle arrest in human K562 cells expressing wild type Bcr-Abl assessed as accumulation at G0/G1 phase after 24 hrs using propidium iodide staining by flow cytometry", "type": "functional, cell-based"}, "[7]": {"tested_on": "Tyrosine-protein kinase ABL1 (Mus musculus), P00520 [T315I]", "sequence (P00520 whole entry T315I)": "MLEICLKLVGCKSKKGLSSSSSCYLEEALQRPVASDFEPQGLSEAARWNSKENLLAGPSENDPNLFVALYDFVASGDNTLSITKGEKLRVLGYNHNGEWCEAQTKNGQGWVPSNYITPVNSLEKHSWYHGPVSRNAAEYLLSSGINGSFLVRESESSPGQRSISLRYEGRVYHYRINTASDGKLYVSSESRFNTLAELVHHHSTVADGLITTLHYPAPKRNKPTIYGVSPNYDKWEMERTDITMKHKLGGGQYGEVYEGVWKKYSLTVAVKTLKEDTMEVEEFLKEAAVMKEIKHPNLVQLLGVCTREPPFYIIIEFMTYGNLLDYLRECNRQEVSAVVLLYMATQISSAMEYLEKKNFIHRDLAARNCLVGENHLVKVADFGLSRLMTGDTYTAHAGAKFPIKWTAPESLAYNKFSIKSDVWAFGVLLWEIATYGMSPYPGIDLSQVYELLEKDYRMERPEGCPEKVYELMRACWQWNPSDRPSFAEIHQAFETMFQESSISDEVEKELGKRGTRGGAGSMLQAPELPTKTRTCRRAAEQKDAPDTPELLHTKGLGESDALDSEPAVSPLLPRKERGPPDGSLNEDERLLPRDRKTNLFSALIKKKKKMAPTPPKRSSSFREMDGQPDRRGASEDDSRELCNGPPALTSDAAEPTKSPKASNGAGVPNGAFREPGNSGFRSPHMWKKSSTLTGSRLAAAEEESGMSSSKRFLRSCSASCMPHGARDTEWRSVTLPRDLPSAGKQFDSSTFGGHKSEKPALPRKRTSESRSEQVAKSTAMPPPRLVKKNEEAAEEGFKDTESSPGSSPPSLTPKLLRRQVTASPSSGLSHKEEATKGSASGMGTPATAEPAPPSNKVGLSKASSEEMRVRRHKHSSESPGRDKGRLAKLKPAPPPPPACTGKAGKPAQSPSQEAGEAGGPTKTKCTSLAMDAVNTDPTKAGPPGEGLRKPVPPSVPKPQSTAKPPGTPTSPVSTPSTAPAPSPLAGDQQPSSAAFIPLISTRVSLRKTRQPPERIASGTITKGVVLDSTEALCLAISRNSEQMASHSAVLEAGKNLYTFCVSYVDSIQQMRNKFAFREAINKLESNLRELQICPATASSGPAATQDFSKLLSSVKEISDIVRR", "assay": "Inhibition of Bcr-Abl T315I mutant in mouse BA/F3 cells assessed as reduction of CRKL phosphorylation at 4 to 500 nM after 4 hrs by Western blot analysis", "type": "cell-based", "conditions": "BaF3"}, "BaF3 [8]": {"tested_on": "BaF3", "assay": "Antitumor activity against mouse BA/F3 cells expressing Bcr-Abl T315I mutant allografted in po dosed mouse assessed as tumor growth inhibition administered qd for 16 days", "type": "functional, organism-based"}, "[9]": {"tested_on": "Tyrosine-protein kinase ABL1 (Mus musculus), P00520 [T315I]", "assay": "Inhibition of Bcr-Abl T315I mutant in mouse BA/F3 cells assessed as total protein level of Bcr-Abl at 4 to 500 nM after 4 hrs by Western blot analysis", "type": "cell-based", "conditions": "BaF3"}, "BaF3 [10]": {"tested_on": "BaF3", "assay": "Induction of apoptosis in mouse BA/F3 cells expressing Bcr-Abl T315I mutant assessed as early apoptotic cells at 100 nM after 24 hrs using annexin-V/7-AAD staining by FACS analysis (reference value: 4.6%)", "type": "functional"}, "BaF3 [11]": {"tested_on": "BaF3", "assay": "Induction of apoptosis in mouse BA/F3 cells expressing Bcr-Abl T315I mutant assessed as early apoptotic cells at 500 nM after 24 hrs using annexin-V/7-AAD staining by FACS analysis (reference value: 4.6%)", "type": "functional"}, "BaF3 [12]": {"tested_on": "BaF3", "assay": "Induction of apoptosis in mouse BA/F3 cells expressing Bcr-Abl T315I mutant assessed as early apoptotic cells at 4 nM after 24 hrs using annexin-V/7-AAD staining by FACS analysis (reference value: 4.6%)", "type": "functional"}, "BaF3 [13]": {"tested_on": "BaF3", "assay": "Antitumor activity against mouse BA/F3 cells expressing Bcr-Abl T315I mutant allografted in mouse assessed as tumor growth inhibition at 10 mg/kg, qd for 16 days", "type": "functional, organism-based"}, "Rattus norvegicus": {"tested_on": "Rattus norvegicus", "assay": "AUC (0 to infinity) in Sprague-Dawley rat at 10 mg/kg, iv", "type": "ADME, organism-based", "design": "dose 10 mg/kg, time infinity, route intravenous", "conditions": "in vivo"}, "K562 [14]": {"tested_on": "K562", "assay": "Cell cycle arrest in human K562 cells expressing wild type Bcr-Abl assessed as accumulation at G0/G1 phase at 4 nM after 24 hrs using propidium iodide staining by flow cytometry (reference value: 64.03%)", "type": "functional"}, "[15]": {"assay": "Cell cycle arrest in mouse BA/F3 cells expressing Bcr-Abl T315I mutant assessed as accumulation at G0/G1 phase at 4 nM after 24 hrs using propidium iodide staining by flow cytometry (reference value: 51.92%)", "type": "functional, cell-based", "conditions": "BaF3"}, "cells": {"assay": "cells", "conditions": "Mus musculus, BaF3, 72 h"}, "Mus musculus [16]": {"tested_on": "Mus musculus", "assay": "Toxicity in human K562 cells expressing wild type Bcr-Abl xenografted mouse assessed as mortality at 3.3 to 10 mg/kg, po qd for 16 days", "type": "organism-based", "conditions": "in vivo, 384 h"}}, "note": "Active and inactive are the calls of the source. The calls are words filed in the database; no cut-off is given here.", "data": [{"smiles": "Cc1cn(-c2cc(NC(=O)c3ccc(C)c(C#Cc4cnc(NC5CC5)nc4)c3)cc(C(F)(F)F)c2)cn1", "values": [{"measurement": "Activity", "setting": "Mus musculus [1]", "result": "< 5", "unit": "%"}, {"measurement": "Activity", "setting": "K562 [2]", "result": 1.7, "unit": "%"}, {"measurement": "Activity", "setting": "[3]", "result": 58.9, "unit": "%"}, {"measurement": "Activity", "setting": "K562 [4]", "result": 7.1, "unit": "%"}, {"measurement": "Activity", "setting": "BaF3 [5]", "result": "Dose-dependent effect"}, {"measurement": "Activity", "setting": "K562 [6]", "result": "Dose-dependent effect"}, {"measurement": "inhibition", "setting": "[7]", "result": "Active"}, {"measurement": "growth inhibition (GI)", "setting": "BaF3 [8]", "result": "Dose-dependent effect"}, {"measurement": "inhibition", "setting": "[9]", "result": "inactive"}, {"measurement": "Activity", "setting": "BaF3 [10]", "result": 7.1, "unit": "%"}, {"measurement": "Activity", "setting": "BaF3 [11]", "result": 10.2, "unit": "%"}, {"measurement": "Activity", "setting": "BaF3 [12]", "result": 5.8, "unit": "%"}, {"measurement": "Activity", "setting": "BaF3 [13]", "result": "inactive"}, {"measurement": "AUC", "setting": "Rattus norvegicus", "result": 285187, "unit": "µg/L/h"}, {"measurement": "Activity", "setting": "K562 [14]", "result": 85.99, "unit": "%"}, {"measurement": "Activity", "setting": "[15]", "result": 52.4, "unit": "%"}, {"measurement": "IC50", "setting": "cells", "result": 0.05, "unit": "µM"}, {"measurement": "Activity", "setting": "Mus musculus [16]", "result": "Non-toxic"}]}]}
